Here are results for 19 compounds from patent US20080200461A1, “MODULATORS OF ACETYL-COENZYME A CARBOXYLASE AND METHODS OF USE THEREOF” (Cropsolution, Inc., priority 2007, published 2008).

Read-outs that look alike come from different tables or passages of the source.

For one test, the system named is Botrytis cinerea. The experiment in a line: Fungicidal activity, microtiter plate agar growth assay. The format is cell-based. The following applies: read-out: In vivo IC50 B. cinerea.
The next test deals with Phytophthora infestans. Description: microbe, parasite or virus in culture. The class given is cell-based. Particulars: read-out: In vivo IC50 P. infestens.
The next test has as its system Stagonospora nodorum. Description: Fungicidal activity, microtiter plate agar growth assay. The format is cell-based. Particulars: Parastagonospora nodorum, read-out: In vivo IC50 S. nodorum.
In the next test the test system is Septoria tritici. The description is as above. The class given is cell-based. The following applies: Zymoseptoria tritici, read-out: In vivo IC50 S. tritici.
Another test addresses Ustilago maydis ACC (Mycosarcoma maydis, UniProt A0A0D1DYD5). The experiment in a line: biochemical. The format is biochemical.
Another test deals with T1, hACC1 (Homo sapiens, UniProt Q13085).
T1 construct: we cloned full-length cDNAs for both the human isoforms (hACC1 and hACC2); His tag (from pET30a) (C); made in house; host or cells: sf9 insect cells (baculovirus)
Description: Recombinant human ACC1 activity, [14C]bicarbonate incorporation. The class given is biochemical. The following applies: Table II; read-out: Enzyme Activity IC50 Human ACC1.

The next test concerns the target T2, hACC2 (Homo sapiens, UniProt O00763).
T2 construct: delete amino acids 1-148 and add Met-Gly in front of Lys149 in the final product; His tag (from pET30a) (C); made in house; host or cells: sf9 insect cells (baculovirus)
Description: Recombinant human ACC2 activity, [14C]bicarbonate incorporation. The format is biochemical. The following applies: Table II; read-out: Enzyme Activity IC50 Human ACC2.

A further test concerns the target Ustilago maydis K53R ACC (Mycosarcoma maydis, UniProt A0A0D1DYD5, K53R). The experiment in a line: biochemical. The class given is biochemical. Particulars: K53R mutation that confers resistance to soraphen.
Test [1] concerns the target T3, rat liver ACC (Rattus norvegicus, UniProt P11497). The experiment in a line: Rat liver ACC activity, [14C]bicarbonate incorporation. The format is biochemical. The text has this:
(§1) To test the effect of compounds against mammalian ACC both human and rat enzyme preparations were employed. ACC was purified from rat liver according to published protocols (Rubink and Winder, J Appl Physiol 98, 1221-1227 (2005); Trumble et al., Eur J Biochem 231, 192-198 (1995)). Rat liver contains both ACC1 and ACC2 in a ˜85:15 ratio, respectively (Harwood et al., J Biol Chem 278, 37099-37111 (2003)).

The next test concerns the target yeast wt BC domain (Saccharomyces cerevisiae, UniProt Q00955). Description: Tryptophan fluorescence binding assay. Particulars: for EC50: protein concentration = 200 nM. The procedure: The soraphen binding pocket contains a tryptophan residue. Thus, tryptophan fluorescence may be used to directly monitor binding of a ligand to this site. […] We conducted a similar assay in a 96-well format. Briefly, 200 nM protein in 100 mM Tris pH 8 containing 100 mM NaCl and 0.01% Tween 20 (v/v) was incubated in the presence of various amounts of test compounds dissolved in DMSO (1% v/v final concentration). Tryptophan fluorescence at […] was measured in a Pherastar plate reader (BMG Labtech) using 280 nm excitation.

For test [2], the target named is T3, rat liver ACC. The experiment in a line: FP saturation binding assay.
Excerpt: as §1

Test [3] concerns the target BC domain of eukaryotic ACCs. Particulars: literature; cited from earlier work.
The subject of another test is bacterial BC subunits. Particulars: literature; cited from earlier work.
The next test deals with yeast BC domain (Saccharomyces cerevisiae, UniProt Q00955). Particulars: cited from earlier work.
The mark [4] stands for this setting: fungal growth on agar, 20° C., 3-5 days.
Where [5] appears, read: Table I, read-out: In vitro IC50 U. maydis ACC activity.
Where [6] appears, read: Table II, enzyme concentration 50 nM, read-out: Enzyme Activity IC50 U. maydis ACC.
The mark [7] stands for this setting: Table II, enzyme concentration 25 nM, ND = none detected, read-out: Enzyme Activity IC50 Rat liver ACC.

Chain of yeast wt BC domain (Q00955 58-567): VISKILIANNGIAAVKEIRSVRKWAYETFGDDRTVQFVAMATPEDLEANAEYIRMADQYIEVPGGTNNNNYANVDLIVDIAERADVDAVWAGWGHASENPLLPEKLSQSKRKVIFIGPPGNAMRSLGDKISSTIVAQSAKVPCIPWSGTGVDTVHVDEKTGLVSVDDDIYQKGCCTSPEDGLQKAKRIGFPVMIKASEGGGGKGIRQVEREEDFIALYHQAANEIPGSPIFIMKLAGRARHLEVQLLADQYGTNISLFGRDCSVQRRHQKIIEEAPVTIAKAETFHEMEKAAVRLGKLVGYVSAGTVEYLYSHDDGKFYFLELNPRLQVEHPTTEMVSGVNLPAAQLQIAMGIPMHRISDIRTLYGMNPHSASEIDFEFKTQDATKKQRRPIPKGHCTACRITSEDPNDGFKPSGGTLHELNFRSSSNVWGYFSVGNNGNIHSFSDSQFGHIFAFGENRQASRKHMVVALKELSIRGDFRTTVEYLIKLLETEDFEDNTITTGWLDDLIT
Chain of Ustilago maydis ACC (A0A0D1DYD5 entry or part of it): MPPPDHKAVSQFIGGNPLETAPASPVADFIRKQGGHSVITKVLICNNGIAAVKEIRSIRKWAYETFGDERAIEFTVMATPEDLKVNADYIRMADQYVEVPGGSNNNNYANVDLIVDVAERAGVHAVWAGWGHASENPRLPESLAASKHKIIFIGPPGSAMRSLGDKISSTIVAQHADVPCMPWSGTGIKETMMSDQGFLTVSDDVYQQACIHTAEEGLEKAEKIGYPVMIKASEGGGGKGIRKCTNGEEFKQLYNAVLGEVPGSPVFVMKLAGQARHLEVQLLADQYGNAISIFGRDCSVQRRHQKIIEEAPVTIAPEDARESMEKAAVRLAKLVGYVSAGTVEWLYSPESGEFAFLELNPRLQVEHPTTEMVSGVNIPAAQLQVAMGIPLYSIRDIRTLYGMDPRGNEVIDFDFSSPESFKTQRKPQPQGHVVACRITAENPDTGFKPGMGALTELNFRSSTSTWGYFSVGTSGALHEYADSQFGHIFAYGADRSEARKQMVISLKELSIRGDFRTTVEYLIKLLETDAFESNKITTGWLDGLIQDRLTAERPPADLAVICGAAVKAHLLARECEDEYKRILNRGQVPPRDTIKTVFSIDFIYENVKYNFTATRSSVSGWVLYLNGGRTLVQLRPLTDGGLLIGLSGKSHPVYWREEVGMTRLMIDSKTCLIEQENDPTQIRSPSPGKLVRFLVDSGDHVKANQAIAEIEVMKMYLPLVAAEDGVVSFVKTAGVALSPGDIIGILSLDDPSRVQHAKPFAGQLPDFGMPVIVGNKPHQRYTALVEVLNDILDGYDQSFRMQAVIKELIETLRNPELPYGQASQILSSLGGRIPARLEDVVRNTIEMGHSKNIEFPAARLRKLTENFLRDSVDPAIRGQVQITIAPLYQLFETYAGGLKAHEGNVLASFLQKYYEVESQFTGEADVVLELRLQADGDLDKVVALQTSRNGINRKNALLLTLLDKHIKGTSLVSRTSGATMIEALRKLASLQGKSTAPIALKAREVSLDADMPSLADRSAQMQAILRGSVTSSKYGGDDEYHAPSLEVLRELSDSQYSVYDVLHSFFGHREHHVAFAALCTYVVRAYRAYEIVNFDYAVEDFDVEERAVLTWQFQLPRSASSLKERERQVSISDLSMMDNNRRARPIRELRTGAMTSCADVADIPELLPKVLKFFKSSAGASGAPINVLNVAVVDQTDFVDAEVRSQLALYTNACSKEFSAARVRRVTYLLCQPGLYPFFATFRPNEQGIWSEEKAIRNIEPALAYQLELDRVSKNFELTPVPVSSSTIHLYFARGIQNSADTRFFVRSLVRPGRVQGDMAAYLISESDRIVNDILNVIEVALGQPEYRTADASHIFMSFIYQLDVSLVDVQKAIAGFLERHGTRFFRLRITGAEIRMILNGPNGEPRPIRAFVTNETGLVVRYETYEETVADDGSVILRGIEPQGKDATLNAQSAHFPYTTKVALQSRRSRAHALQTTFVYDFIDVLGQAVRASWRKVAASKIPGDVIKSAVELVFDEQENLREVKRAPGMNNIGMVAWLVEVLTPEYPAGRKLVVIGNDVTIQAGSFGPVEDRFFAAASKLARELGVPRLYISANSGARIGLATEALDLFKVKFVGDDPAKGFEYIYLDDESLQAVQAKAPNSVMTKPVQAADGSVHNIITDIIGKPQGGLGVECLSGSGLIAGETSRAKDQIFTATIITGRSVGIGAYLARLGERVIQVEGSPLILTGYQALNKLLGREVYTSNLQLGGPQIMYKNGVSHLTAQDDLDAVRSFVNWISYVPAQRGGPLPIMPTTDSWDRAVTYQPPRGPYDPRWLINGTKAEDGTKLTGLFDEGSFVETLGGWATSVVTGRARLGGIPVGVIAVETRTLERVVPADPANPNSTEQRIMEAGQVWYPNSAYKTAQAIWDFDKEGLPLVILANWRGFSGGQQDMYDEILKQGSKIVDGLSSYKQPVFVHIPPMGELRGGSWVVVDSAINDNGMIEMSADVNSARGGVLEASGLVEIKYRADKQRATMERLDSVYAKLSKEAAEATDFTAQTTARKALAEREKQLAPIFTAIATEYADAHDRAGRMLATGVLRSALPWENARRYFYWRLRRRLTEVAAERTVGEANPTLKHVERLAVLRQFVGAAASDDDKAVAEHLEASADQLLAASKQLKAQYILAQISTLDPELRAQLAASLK
T2 sequence (O00763 with tags, fused parts or gaps): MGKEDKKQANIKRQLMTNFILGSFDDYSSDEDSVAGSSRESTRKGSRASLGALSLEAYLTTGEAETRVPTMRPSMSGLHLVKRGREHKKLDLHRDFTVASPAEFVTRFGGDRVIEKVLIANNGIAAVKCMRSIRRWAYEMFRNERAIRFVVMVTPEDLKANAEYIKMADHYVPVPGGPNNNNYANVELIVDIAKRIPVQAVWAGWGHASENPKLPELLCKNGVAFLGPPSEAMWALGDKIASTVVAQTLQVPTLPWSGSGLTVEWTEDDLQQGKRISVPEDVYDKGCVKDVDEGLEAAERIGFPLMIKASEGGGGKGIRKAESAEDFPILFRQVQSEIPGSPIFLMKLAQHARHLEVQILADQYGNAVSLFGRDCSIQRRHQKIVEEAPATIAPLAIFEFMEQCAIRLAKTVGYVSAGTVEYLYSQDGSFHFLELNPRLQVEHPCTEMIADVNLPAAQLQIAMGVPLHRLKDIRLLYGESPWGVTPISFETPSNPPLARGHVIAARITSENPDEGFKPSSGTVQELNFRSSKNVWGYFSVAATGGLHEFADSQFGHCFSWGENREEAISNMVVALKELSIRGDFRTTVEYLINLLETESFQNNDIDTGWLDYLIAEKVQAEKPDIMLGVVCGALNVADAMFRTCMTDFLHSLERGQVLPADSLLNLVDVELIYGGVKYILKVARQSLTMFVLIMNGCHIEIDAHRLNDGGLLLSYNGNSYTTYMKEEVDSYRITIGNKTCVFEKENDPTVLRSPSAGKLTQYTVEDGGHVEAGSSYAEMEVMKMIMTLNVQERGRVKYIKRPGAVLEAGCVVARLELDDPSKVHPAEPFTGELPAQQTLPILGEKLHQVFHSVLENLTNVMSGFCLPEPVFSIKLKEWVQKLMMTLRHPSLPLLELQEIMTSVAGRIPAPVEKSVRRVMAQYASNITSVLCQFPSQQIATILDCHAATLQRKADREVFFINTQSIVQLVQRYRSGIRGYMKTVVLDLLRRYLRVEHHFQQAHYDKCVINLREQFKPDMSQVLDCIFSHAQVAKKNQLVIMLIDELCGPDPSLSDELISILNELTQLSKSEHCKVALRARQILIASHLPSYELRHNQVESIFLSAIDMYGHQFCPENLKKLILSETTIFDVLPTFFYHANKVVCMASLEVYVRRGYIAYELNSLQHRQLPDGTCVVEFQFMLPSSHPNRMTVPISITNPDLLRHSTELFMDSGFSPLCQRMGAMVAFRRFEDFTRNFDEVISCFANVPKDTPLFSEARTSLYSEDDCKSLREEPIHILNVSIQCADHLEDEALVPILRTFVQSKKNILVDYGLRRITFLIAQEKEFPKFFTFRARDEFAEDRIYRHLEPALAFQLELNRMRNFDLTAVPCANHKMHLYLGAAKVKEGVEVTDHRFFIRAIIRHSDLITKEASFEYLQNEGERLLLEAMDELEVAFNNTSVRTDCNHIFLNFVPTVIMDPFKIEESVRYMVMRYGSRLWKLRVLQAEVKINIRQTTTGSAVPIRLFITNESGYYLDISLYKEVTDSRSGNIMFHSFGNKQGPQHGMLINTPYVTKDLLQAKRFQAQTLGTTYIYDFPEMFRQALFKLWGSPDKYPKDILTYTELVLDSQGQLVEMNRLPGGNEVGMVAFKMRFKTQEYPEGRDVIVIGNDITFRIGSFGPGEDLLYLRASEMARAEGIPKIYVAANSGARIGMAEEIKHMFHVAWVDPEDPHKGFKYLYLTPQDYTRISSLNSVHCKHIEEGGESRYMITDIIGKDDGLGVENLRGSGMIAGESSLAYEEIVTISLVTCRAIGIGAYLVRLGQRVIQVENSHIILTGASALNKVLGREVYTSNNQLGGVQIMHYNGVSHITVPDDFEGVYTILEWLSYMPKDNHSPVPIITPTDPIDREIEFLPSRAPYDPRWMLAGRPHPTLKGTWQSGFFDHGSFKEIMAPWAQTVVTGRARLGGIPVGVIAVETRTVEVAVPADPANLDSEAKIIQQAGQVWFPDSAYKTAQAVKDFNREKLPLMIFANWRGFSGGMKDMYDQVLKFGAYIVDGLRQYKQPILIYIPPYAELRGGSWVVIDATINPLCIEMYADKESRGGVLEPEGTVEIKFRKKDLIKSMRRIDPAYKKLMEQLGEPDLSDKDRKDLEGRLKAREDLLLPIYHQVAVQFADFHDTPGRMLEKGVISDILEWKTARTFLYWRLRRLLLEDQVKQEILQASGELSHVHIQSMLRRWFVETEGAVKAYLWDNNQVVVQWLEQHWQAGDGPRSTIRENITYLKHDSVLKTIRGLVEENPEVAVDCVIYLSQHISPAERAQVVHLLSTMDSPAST

`COc1cc2c(=O)n(CCCC[N+](C)(CCC[N+](C)(C)Cc3cc(C)cc(C)c3)Cc3cc(C)cc(C)c3)c(SCc3cc(C)cc(C)c3)nc2c(OC)c1OC` (centres unmarked) [Compound 22]: the IC50 was found to be 6.7 µM with Botrytis cinerea (setting [4]); 35 µM in the test on Phytophthora infestans; 4.6 µM with Stagonospora nodorum (setting [4]); 4.4 µM in the test with Septoria tritici (setting [4]); 12 µM on Ustilago maydis ACC (setting [5]).

Take `CC[N+](CC)(CCCCN(Cc1cc(C)cc(C)c1)C(=O)c1cc(C)cc(C)c1)Cc1cc(C)cc(C)c1` [Compound 76]: on Ustilago maydis ACC (setting [6]), the 50% inhibitory concentration (IC50) was 30 µM.

Regarding `CC[N+](CC)(CCCCN(Cc1cc(C)cc(C)c1)C(=O)c1ccc2ccccc2c1)Cc1cc(C)cc(C)c1` [Compound 133, Diethyl(3,5-dimethylbenzyl)[N-(3,5-dimethylbenzyl)-2-naphthalenecarboxamidobutyl]ammonium bromide], on Ustilago maydis ACC (setting [6]), the IC50 was determined as 3 µM.

With `C[N+]1(Cc2ccc(Cl)c(Cl)c2)CCN(CCCn2c(SCc3ccc(Cl)c(Cl)c3)nc3ccc(Br)cc3c2=O)CC1` [Compound 7], the IC50 with Botrytis cinerea (setting [4]) amounted to 4.3 µM; in the test with Phytophthora infestans, 200 µM; in the test on Stagonospora nodorum (setting [4]) it was 8 µM; in the test with Septoria tritici (setting [4]), 4.8 µM; at Ustilago maydis ACC (setting [5]) it was 17 µM.

As to `Cc1cc(C)cc(CN(CC[N+](C)(C)Cc2cc(C)cc(C)c2)Cc2cc(C)cc(C)c2)c1` [Compound 25], the half-inhibitory concentration (IC50) in the test with Botrytis cinerea (setting [4]) was found to be 1.4 µM; in the test on Phytophthora infestans it was 18.2 µM; in the test on Stagonospora nodorum (setting [4]), 5.8 µM; with Septoria tritici (setting [4]) it was 10 µM; on Ustilago maydis ACC (setting [5]), 42 µM.

As to `CC[N+](CC)(CCCCN(Cc1ccc2ccccc2c1)C(=O)c1sc2cccc(Cl)c2c1Cl)Cc1cc(C)cc(C)c1.[Br-]` [Compound 322], the IC50 was found to be 0.04 µM on Ustilago maydis ACC (setting [6]), 0.25 µM on hACC1 and 1 µM on hACC2. The “Effect of K53R mutation on inhibition of ACC by compound” value at Ustilago maydis K53R ACC is given as “confers resistance to inhibition”.

On to `Cc1cc(C)cc(CN(CCCC[N+](C)(C)Cc2cc(C)cc(C)c2)C(=S)Nc2c(F)cccc2F)c1` [Compound 74], for which the IC50 on Ustilago maydis ACC (setting [6]) came out at 9 µM.

As for `CC[N+](CC)(CCCCN(Cc1ccc2c(c1)OCCO2)S(=O)(=O)c1ccc2ccccc2c1)Cc1cc(C)cc(C)c1.[Br-]` [Compound 184], the “Effect of K53R mutation on inhibition of ACC by compound” value at Ustilago maydis K53R ACC is “confers resistance to inhibition”.

Consider `CC[N+](CC)(CCCCN(Cc1ccc2ccccc2c1)S(=O)(=O)c1cccc(Cl)c1Cl)Cc1cc(C)cc(C)c1` [Compound 237], for which the IC50 at Ustilago maydis ACC (setting [6]) was determined as 1.4 µM; at hACC1 it was 12 µM; on hACC2 it was 50 µM.

In the case of `Cc1cc(C)cc(CN(CCCC[N+](C)(C)Cc2cc(C)cc(C)c2)S(=O)(=O)c2ccc(Br)cc2)c1` [Compound 61], the IC50 on Ustilago maydis ACC (setting [6]) was 9 µM.

`CC[N+](CC)(CCCCN(Cc1cc(C)cc(C)c1)S(=O)(=O)c1ccc2ccccc2c1)Cc1cc(C)cc(C)c1` [Compound 85, Diethyl(3,5-dimethylbenzyl)[N-(3,5-dimethylbenzyl)-2-naphthalenesulfonamidobutyl]ammonium bromide]: the values for the 50% inhibitory concentration (IC50) on Ustilago maydis ACC (setting [6]) and at rat liver ACC [1] (setting [7]) were 15 µM and 43 µM, respectively.

Turning to `Cc1cc(C)cc(CN(CCCC[N+](C)(C)Cc2cc(C)cc(C)c2)Cc2cc(C)cc(C)c2)c1` [Compound 19], the IC50 in the test on Botrytis cinerea (setting [4]) turned out to be 7 µM; in the test with Phytophthora infestans, 25 µM; in the test with Stagonospora nodorum (setting [4]), 64 µM; with Septoria tritici (setting [4]), 22 µM; on Ustilago maydis ACC (setting [5]) it was 21 µM.

In the case of `CO[C@H]1CCCC[C@@H](c2ccccc2)OC(=O)[C@@H](C)[C@@]2(O)O[C@H]([C@@H](C)[C@H](O)[C@H]2OC)[C@@H](C)/C=C/[C@H]1OC` [soraphen A, Soraphen A, reference compound], the IC50 on Ustilago maydis ACC (setting [6]) was determined as 0.017 µM; at Ustilago maydis ACC (Table III, enzyme concentration = 50 nM, read-out: Enzyme activity IC50 U. maydis wt ACC), 0.017 µM; on Ustilago maydis ACC (read-out: IC50 inhibition of fungal ACC) it was 0.017 µM; at rat liver ACC [1] (tight binding conditions, nominal enzyme concentration 25 nM, read-out: IC50 rat liver ACC activity), 0.014 µM; on hACC1, 0.011 µM; on hACC2, 0.0027 µM. The compound further came in with a concentration giving a half-maximal response (EC50) on yeast wt BC domain of 0.09 µM. For the same compound, the Kd was 0.0032 µM at rat liver ACC [2], approximately 0.001 µM in [3] and 0.001 µM at yeast BC domain. The “Effect on bacterial BC subunits” value in the test on bacterial BC subunits is recorded as “no effect”.

Turning to `Cc1cc(C)cc(CN(CCC[N+](C)(C)Cc2cc(C)cc(C)c2)Cc2cc(C)cc(C)c2)c1` [Compound 26], the IC50 turned out to be 1 µM in the test with Botrytis cinerea (setting [4]); 23.5 µM with Phytophthora infestans; 5 µM in the test on Stagonospora nodorum (setting [4]); 6 µM in the test with Septoria tritici (setting [4]); 39 µM on Ustilago maydis ACC (setting [5]).

In the case of `CC[N+](CC)(CCCCN(Cc1ccc2ccccc2c1)C(=O)c1cc2cccc(OC)c2cc1OC)Cc1cc(C)cc(C)c1` [Compound 260], the half-inhibitory concentration (IC50) on Ustilago maydis ACC (setting [6]) was 1.4 µM; on hACC1 it was 2.8 µM; at hACC2 it was 11 µM.

With `COc1cc2c(=O)n(CCCC[N+](C)(C)Cc3ccc(Br)cc3)c(=S)n(Cc3ccc(Br)cc3)c2c(OC)c1OC` [Compound 15], the IC50 in the test with Botrytis cinerea (setting [4]) amounted to 2 µM; with Phytophthora infestans, 18 µM; in the test with Stagonospora nodorum (setting [4]), 8 µM; with Septoria tritici (setting [4]) it was 4 µM; on Ustilago maydis ACC (setting [5]), 16 µM.

For `CC[N+](CC)(CCCCN(Cc1cc(C)cc(C)c1)Cc1cc(C)cc(C)c1)Cc1cc(C)cc(C)c1.[Br-]` [Compound 28, Diethyl(3,5-dimethylbenzyl)[bis-(3,5-dimethylbenzyl)aminobutyl]ammonium formate], the 50% inhibitory concentration (IC50) worked out at 1.8 µM in the test with Botrytis cinerea; 21.5 µM in the test with Phytophthora infestans; 7.2 µM in the test with Stagonospora nodorum; 11 µM in the test with Septoria tritici; 11 µM at Ustilago maydis ACC (Enzyme activity IC50 U. maydis wt ACC); 17 µM against Ustilago maydis ACC (In vitro IC50 U. maydis ACC activity). On Ustilago maydis K53R ACC, the “Effect of K53R mutation on inhibition of ACC by compound” value is “confers resistance to inhibition”. The “Effect on tryptophan fluorescence of yeast BC domain” value on yeast wt BC domain is given as “quenched”. The compound further registered a concentration for a half-maximal effect (EC50) on yeast wt BC domain of 11 µM.

Turning to “Diethyl(3,5-dimethylbenzyl)[N-(2-naphthylmethyl)-2-naphthalenesulfonamidobutyl]ammonium bromide [Compound 200]”, the IC50 on Ustilago maydis ACC (setting [6]) is 0.56 µM; at rat liver ACC [1] (setting [7]), 11 µM; on hACC1 it was 7.6 µM; at hACC2, 22 µM.

With `CC[N+](CC)(CCCCN(Cc1ccc2ccccc2c1)C(=O)c1sc2c(Cl)c(OC)ccc2c1Cl)Cc1cc(C)cc(C)c1` [Compound 326], the IC50 was found to be 0.18 µM at Ustilago maydis ACC (setting [6]), 0.15 µM at hACC1 and 1.5 µM at hACC2.

Broadly, the IC50 is the concentration that inhibits the measured activity by half. Usually EC50 stands for the midpoint of the concentration-response curve. High values mean weaker potency, low ones greater potency. In general, Kd refers to the constant that tells how readily two partners part at equilibrium.
